Source: publication PMC3082971 (Biochemistry, 2011)

Target: T1, hVDAC2 (Homo sapiens, UniProt P45880)
T1 sequence (P45880 2-294): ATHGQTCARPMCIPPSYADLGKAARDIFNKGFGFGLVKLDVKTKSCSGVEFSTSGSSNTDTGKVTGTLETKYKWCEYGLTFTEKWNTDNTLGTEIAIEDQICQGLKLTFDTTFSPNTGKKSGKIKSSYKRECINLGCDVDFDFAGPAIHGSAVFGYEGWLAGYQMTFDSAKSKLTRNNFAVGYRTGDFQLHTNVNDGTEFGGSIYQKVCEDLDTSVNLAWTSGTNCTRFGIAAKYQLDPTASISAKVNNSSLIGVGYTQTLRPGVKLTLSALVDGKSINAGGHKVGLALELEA
Assay: biochemical

**Q.** How did the EC50 turn out when `CCOc1ccccc1-n1c(C(C)N2CCN(C(=O)COc3ccc(Cl)cc3)CC2)nc2ccccc2c1=O` (stereo not shown) [erastin] was run?
**A.** Its EC50 is 52.6 ± 28.2 nM.
